Here are results for one compound from patent US20240174684A1, “INHIBITORS OF cGAS ACTIVITY AS THERAPEUTIC AGENTS” (BELLBROOK LABS, LLC, priority 2021, published 2024).

Data set [1] has as its target T1, cGAS (Homo sapiens, UniProt Q8N884). Kind of data set: Transcreener cGAS enzymatic assay (FP). The format is biochemical. Summed up: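 Human cGAS (30 nm) inhibition, 60 min reactions, FP read-out, standard conditions 100 μM ATP and GTP plus 62.5 nM bp ISD. Also run at 1 mM ATP and GTP (physiological), with 200 μM MnCl2, and with mouse cGAS under standard conditions; IC50 reported.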

The nature of data set [2]: Metabolic stability in human hepatocytes. The format is in vitro ADME. The settings on record: read-out: Human MS Stability t1/2. The method, then:
(§1) ADME studies: Compound A and the compounds of the disclosure were tested for aqueous solubility (KSOL), metabolic stability (human and mouse […]) and permeability (Caco-2 and/or MDR1-MDCK cells) to provide an initial indication of oral bioavailability.
(§2) The favorable physicochemical properties are reflected in promising results in in vitro ADME tests. […] Metabolic stability, which was routinely measured with mouse and human hepatocytes, is outstanding, with t, greater than 2 hours for all of the compounds of the disclosure in which it has been measured. Cell permeability was measured using MDCK cells expressing human MDR1 (P-glycoprotein) to assess passive permeability as well as active transport out of the cell. […] Numerous compounds in Table 1 meet these permeability criteria, which is consistent with their design for TPSA <140 Å^2 and increased lipophilicity.
(§3) The MDCK-MDR1 permeability A ->B is shown in Table 2 below, where A represents 5-10 cm/s×10^−6; B represents 1-5 cm/s×10^−6; and C represents <1 cm/ss×10^−6. The metabolic stability half time, in both mouse and human hepatocytes, is also shown in Table 2 below, where A′ represents 100-200 minutes; B′ represents 200-300 minutes; and C′ represents >300 minutes.

For data set [3], the system named is TLR4 pathway. Kind of data set: Reporter gene assay NFKB (TLR4). The settings on record: at concentrations above 25 μM. In kind it is cell-based. The method, then:
(§4) CETSA was also used to confirm that the compounds are binding to cGAS in cells; THP-1 cells are used for this analysis. Compounds were tested in dose response mode by incubating with cells for 1.5 hours at 37° C., followed by pelleting and re-suspending in PBS, heating to 51.5° C. for 3 min and cooling to room temp. Cells were then lysed, debris, including denatured cGAS, was pelleted and the supernatant was analyzed for soluble cGAS by Western Blot using anti-cGAS primary Ab (Cell Signaling). Band intensity was analyzed using Image J software. Stimulation with cGAMP directly activates STING, circumventing cGAS; this was used to determine if compounds had effects on downstream components of cGAS/STING signaling. The IFN-6 ELISA was used as the primary measure of cellular potency and selectivity (Table 3) and used the reporter gene assays for assessing off-target activity with other pattern recognition receptors.
The reporter gene assays were used to assess off-target activity with IRF30Luc (RIG-1) or NFKB (TLR4); CellTiter Glo (ATP levels) and Presto Blue (reducing equivalents) were used to assess cytotoxicity; all assays were performed in dose response mode. […] The inventors recently began using human PBMCs to assess cellular potency in a more physiologically relevant context.

Data set [4] has as its target mouse cGAS (Mus musculus, UniProt Q8C6L5). Kind of data set: Transcreener cGAS enzymatic assay with mouse cGAS. In kind it is biochemical. As to conditions: standard conditions, read-out: IC50 with mcGAS. The method, then:
Structural, biochemical and biophysical analysis and selectivity profiling: Potency and MOA studies, including Mn^2+ sensitivity, were performed using the Transcreener cGAS enzymatic assay, which is manufactured at BellBrook Labs (Fitchburg, Wisconsin, USA). This homogenous cGAS enzymatic assay was developed with fluorescence polarization (FP) and time-resolved Forster resonance energy transfer (TR-FRET) readouts, as described in International Patent Publication WO 2020/142729, incorporated by reference herein in its entirety. Plates are read on a PHERAstar FSX multimode reader (BMG). The compounds of the disclosure were tested for inhibition of cGAS ([…]) using this cGAS enzymatic assay under standard conditions (100 μM ATP and GTP, 62.5 nM bp ISD, 60 minute reactions), high ATP and GTP (1 mM) to mimic physiological conditions, in the presence of 200 μM MnCl2, and with mouse cGAS under standard conditions.
Potency with mcGAS is important for vivo efficacy studies and represents a challenge for lead development because mcGAS shares only 57% amino acid identity with human enzyme and there are significant functional differences.

A short description of data set [5]: Metabolic stability in mouse hepatocytes. The format is in vitro ADME. As to conditions: read-out: Mouse MS Stability t1/2. How it is done:
as §1, §2, §3

Data set [6] has as its target T1, cGAS. Kind of data set: Cellular thermal shift assay (CETSA) in THP-1 cells. The format is cell-based. The settings on record: heat treatment 51.5 °C. The method, then:
Panel A is an image of a western blot of the stabilization measure; panel B is a bar graph of the stabilization measure. Heat treatment was conducted at 51.5 ° C.
as §4

pIC50: −log10 of the molar value. “Also recorded” adds a separate entry of the source. Like-named read-outs stand apart in the source and are kept apart here.

T1 sequence (Q8N884 whole entry): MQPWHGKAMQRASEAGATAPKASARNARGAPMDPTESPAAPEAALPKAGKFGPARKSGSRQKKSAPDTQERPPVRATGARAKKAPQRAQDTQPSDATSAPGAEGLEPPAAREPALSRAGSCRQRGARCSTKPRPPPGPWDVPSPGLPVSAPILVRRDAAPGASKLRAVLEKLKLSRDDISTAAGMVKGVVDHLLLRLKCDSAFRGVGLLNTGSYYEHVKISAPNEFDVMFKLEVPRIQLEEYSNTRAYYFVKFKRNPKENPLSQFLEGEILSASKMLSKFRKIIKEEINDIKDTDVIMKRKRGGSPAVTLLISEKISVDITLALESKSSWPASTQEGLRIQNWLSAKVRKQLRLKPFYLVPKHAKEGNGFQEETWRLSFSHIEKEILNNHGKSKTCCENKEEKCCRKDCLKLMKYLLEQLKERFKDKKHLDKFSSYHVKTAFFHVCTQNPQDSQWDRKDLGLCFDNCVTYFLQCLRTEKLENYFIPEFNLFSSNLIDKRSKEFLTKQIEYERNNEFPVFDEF
mouse cGAS, sequence (Q8C6L5 whole entry): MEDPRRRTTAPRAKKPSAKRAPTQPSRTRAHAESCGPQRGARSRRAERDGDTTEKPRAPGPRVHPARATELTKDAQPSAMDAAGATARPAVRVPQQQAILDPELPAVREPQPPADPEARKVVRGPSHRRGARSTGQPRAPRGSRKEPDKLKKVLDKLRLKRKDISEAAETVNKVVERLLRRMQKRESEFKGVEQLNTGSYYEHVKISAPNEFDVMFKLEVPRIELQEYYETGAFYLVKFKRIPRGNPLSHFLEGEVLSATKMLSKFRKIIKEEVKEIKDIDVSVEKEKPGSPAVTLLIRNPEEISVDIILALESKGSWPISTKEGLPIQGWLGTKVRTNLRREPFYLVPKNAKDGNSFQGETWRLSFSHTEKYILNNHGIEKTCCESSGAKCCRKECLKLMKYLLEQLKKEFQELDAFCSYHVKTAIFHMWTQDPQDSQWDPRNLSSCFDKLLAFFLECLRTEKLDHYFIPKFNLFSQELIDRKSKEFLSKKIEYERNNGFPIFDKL

Take `Cc1nc(N2C[C@@H](CC(=O)Nc3ccc(-c4ccccc4)cc3)C[C@H]2C(=O)O)c2oc3ccccc3c2n1` [Compound 5, (2S,4R)-4-(2-([1,1′-biphenyl]-4-ylamino)-2-oxoethyl)-1-(2-methylbenzofuro[3,2-d]pyrimidin-4-yl)pyrrolidine-2-carboxylic acid]: the pIC50 is 6.00 to 6.30 in data set [1] (high ATP and GTP (1 mM) to mimic physiological conditions, read-out: IC50 FP Physiological); 7.00 to 7.30 in data set [1] (standard conditions: 100 μM ATP and GTP, 62.5 nM bp ISD, 60 minute reactions, read-out: IC50 FP Standard); 5.37 in data set [4]. The half-life is 1.67 to 3.33 h in data set [2] and greater than 5 h in data set [5]. Also, the “Off-target activity with the TLR4 pathway” value in data set [3] was “some off-target activity”. In addition, the “Stabilization of cGAS in cells (CETSA)” value in data set [6] is on record as “dose dependent stabilization; also recorded: intracellular target engagement”.
